{"source": "patent US6180640A", "about": "“Di- and tetra-hydroquinoline-indole antimicrobial agents, uses and compositions related thereto” (Sepracor, Inc., priority 1999, dated 2001)", "key": {"in vivo": {"assay": "in vivo", "set-up": "species or system mice", "conditions": "mouse, ip", "experimental": "Solutions of compounds in 10% w/v hydroxypropyl-β-cyclodextrin in 0.9% w/v saline were prepared. A dose of 40 mg/kg or 120 mg/kg of each compound was administered to mice (5 mice/compound/dose) via intraperitoneal injections."}, "[1]": {"assay": "Pharmacokinetics in rats after i.v. dosing: plasma and tissue content", "format": "in vivo", "conditions": "3.6 mg/kg i.v.; for concentration at 4 h: 3.6 mg/kg, liposomal", "experimental": "The pharmacokinetics of the compound were evaluated in two rats after dosing at 3.6 mg/kg i.v using a liposomal formulation (1.8 mg/mL). […] Maximum concentrations of approximately 450 ng/ml were attained in plasma. […] Data on the accumulation of the compound in various tissues of the rats is contained in the table below."}, "[2]": {"system": "methicillin-resistant Staphylococcus aureus", "assay": "Topical treatment of infected partial thickness wounds in pigs", "format": "in vivo, methicillin-resistant Staphylococcus aureus; pigs", "conditions": "pig wounds, 200 mg of 2% w/w in PEG", "experimental": "This Example establishes the efficacy of an antibacterial compound of the present invention in the topical treatment of methicillin-resistant Staphylococcus aureus infections. Partial thickness wounds were made on properly anesthetized young, specific pathogen free female pigs (SPF; Ken-O-Kaw Frams, Windsor, Ill.) weighing 25-30 kg. The wounds were inoculated with methicillin-resistant Staphylococcus aureus (~10^6 CFU/mL). Within 10 minutes of inoculation 200 mg of test compound [2% w/w in polyethylene glycol (PEG)] was applied to each wound. Wounds were cultured on days 1, 2, and 3. Each site was cultured only once. The culture sample was treated with a neutralizer for the antimicrobial active ingredient. The samples were processed as is known in the art to determine the number of colony forming units per mL."}}, "note": "Read-outs that look alike come from different tables or passages of the source.", "data": [{"smiles": "Clc1ccc2c(c1)[C@H]1OCC[C@H]1[C@@H](c1c[nH]c3ccc(Br)cc13)N2", "note": "(relative stereo)", "values": [{"measurement": "survival at 168 h", "setting": "in vivo; 40 mg/kg", "result": 100, "unit": "%"}, {"measurement": "survival at 168 h", "setting": "in vivo; 120 mg/kg", "result": 100, "unit": "%"}]}, {"smiles": "Clc1ccc2c(c1)[C@H]1OCC[C@H]1[C@H](c1c[nH]c3ccc(Br)cc13)N2", "note": "(relative stereo)", "values": [{"measurement": "survival at 168 h", "setting": "in vivo; 40 mg/kg", "result": 100, "unit": "%"}, {"measurement": "survival at 168 h", "setting": "in vivo; 120 mg/kg", "result": 100, "unit": "%"}]}, {"smiles": "Brc1ccc2[nH]cc([C@H]3Nc4ccc(C#CCN5CCCCC5)cc4[C@H]4OCC[C@@H]34)c2c1", "note": "(relative stereo) [drawing 54]", "values": [{"measurement": "concentration at 4 h", "setting": "[1]; rat, brain, iv, rat 1, 4 h post dose, read-out: Compound Content in Brain", "result": 400, "unit": "ng/g"}, {"measurement": "concentration at 4 h", "setting": "[1]; rat, brain, iv, rat 2, 4 h post dose, read-out: Compound Content in Brain", "result": 400, "unit": "ng/g"}, {"measurement": "concentration at 4 h", "setting": "[1]; rat, kidney, iv, rat 1, 4 h post dose, read-out: Compound Content in Kidney", "result": 1300, "unit": "ng/g"}, {"measurement": "concentration at 4 h", "setting": "[1]; rat, kidney, iv, rat 2, 4 h post dose, read-out: Compound Content in Kidney", "result": 2200, "unit": "ng/g"}, {"measurement": "concentration at 4 h", "setting": "[1]; rat, liver, iv, rat 1, 4 h post dose, read-out: Compound Content in Liver", "result": 3200, "unit": "ng/g"}, {"measurement": "concentration at 4 h", "setting": "[1]; rat, liver, iv, rat 2, 4 h post dose, read-out: Compound Content in Liver", "result": 3000, "unit": "ng/g"}, {"measurement": "concentration at 4 h", "setting": "[1]; rat, lung, iv, rat 1, 4 h post dose, read-out: Compound Content in Lung", "result": 12100, "unit": "ng/g"}, {"measurement": "concentration at 4 h", "setting": "[1]; rat, lung, iv, rat 2, 4 h post dose, read-out: Compound Content in Lung", "result": 10900, "unit": "ng/g"}, {"measurement": "concentration at 4 h", "setting": "[1]; rat, parietal peritoneum, iv, rat 1, 4 h post dose, read-out: Compound Content in Parietal Peritoneum", "result": 1300, "unit": "ng/g"}, {"measurement": "concentration at 4 h", "setting": "[1]; rat, parietal peritoneum, iv, rat 2, 4 h post dose, read-out: Compound Content in Parietal Peritoneum", "result": 1600, "unit": "ng/g"}, {"measurement": "Cmax", "setting": "[1]; rat, plasma, iv, rats, liposomal formulation (1.8 mg/mL), read-out: Maximum concentrations in plasma", "result": "~450", "unit": "ng/mL"}, {"measurement": "concentration at 4 h", "setting": "[1]; rat, thigh muscle, iv, rat 2, 4 h post dose, read-out: Compound Content in Thigh Muscle", "result": 700, "unit": "ng/g"}, {"measurement": "tolerability of the dose", "setting": "[1]; rats, liposomal formulation", "result": "well tolerated"}, {"measurement": "decline of plasma concentrations", "setting": "[1]; rats, liposomal formulation, two-compartment open model", "result": "declined biexponentially"}]}, {"smiles": "Brc1ccc2[nH]cc([C@H]3Nc4ccc(C#CCN5CCCCC5)cc4[C@H]4OCC[C@@H]34)c2c1", "note": "(relative stereo) [drawing 55]", "values": [{"measurement": "Log CFU/mL (mean ± SE)", "setting": "[2]; 24 h", "result": 5.92, "unit": "Log CFU/mL"}, {"measurement": "Log CFU/mL (mean ± SE)", "setting": "[2]; 48 h", "result": 5.83, "unit": "Log CFU/mL"}, {"measurement": "Log CFU/mL (mean ± SE)", "setting": "[2]; 72 h", "result": 5.66, "unit": "Log CFU/mL"}]}]}
